Where two headings read alike, the source gives them in different places.

What all share (assay): biochemical
Common to all, as to parameters: KINOMEscan scanMAX competition binding, DNA-tagged kinases, qPCR read-out, percent control at 300 nM
Background: Quantitative PCR measures a nucleic acid by following its amplification.

Test [1] concerns the target EGFR(L747-S752del, P753S) (Homo sapiens, UniProt P00533, DEL747-752/P753S).
In test [2] the target is T1, IRAK3 (Homo sapiens, UniProt Q9Y616).
T1 sequence (Q9Y616 1-596): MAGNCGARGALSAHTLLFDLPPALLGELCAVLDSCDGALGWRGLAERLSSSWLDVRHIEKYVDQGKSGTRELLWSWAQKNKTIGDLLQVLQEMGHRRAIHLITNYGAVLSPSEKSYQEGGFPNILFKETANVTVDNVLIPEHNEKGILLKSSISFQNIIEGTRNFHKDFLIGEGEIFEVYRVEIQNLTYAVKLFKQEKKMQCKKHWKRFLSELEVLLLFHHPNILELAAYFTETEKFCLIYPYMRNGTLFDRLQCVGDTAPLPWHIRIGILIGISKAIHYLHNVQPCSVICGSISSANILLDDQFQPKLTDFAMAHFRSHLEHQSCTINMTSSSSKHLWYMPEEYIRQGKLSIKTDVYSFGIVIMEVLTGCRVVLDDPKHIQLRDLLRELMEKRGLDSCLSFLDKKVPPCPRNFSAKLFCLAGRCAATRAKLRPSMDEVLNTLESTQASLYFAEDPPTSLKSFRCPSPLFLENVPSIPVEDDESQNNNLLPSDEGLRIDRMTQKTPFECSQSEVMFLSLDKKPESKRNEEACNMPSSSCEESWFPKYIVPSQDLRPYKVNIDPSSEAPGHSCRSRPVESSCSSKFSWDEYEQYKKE

The target in test [3] is RET(M918T) (Homo sapiens, UniProt P07949, M918T).
For test [4], the target named is T2, p38-alpha (Homo sapiens, UniProt Q16539).
T2 construct: gene MAPK14

Test [5] addresses ACVR2A (Homo sapiens, UniProt P27037).
Test [6] addresses T3, MAP4K3 (Homo sapiens, UniProt Q8IVH8).
T3 sequence (Q8IVH8 1-894): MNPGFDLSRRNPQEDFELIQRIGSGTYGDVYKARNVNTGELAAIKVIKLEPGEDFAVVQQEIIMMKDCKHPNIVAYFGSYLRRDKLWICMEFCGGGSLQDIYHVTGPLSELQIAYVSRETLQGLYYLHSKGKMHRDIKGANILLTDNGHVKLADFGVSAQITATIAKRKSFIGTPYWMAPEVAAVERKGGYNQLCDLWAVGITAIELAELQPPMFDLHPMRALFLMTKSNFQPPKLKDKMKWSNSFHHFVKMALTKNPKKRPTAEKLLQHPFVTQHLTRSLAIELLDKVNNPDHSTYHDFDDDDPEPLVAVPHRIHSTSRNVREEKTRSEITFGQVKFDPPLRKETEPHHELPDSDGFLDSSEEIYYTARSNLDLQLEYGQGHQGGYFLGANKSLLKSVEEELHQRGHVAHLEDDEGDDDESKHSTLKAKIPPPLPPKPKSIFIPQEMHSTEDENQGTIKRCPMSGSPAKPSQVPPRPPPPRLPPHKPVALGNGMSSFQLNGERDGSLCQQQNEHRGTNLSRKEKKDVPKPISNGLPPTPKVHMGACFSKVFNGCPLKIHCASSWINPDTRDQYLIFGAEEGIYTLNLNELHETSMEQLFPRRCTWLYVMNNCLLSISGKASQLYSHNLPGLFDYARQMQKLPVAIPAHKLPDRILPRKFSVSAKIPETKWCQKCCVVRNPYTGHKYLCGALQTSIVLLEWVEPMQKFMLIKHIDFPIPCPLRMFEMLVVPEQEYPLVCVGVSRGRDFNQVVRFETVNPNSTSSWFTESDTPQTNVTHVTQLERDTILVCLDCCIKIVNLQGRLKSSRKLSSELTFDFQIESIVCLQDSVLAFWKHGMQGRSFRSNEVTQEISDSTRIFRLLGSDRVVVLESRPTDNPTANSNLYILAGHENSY

Where [7] appears, read: read-out: Percent control / Tirabrutinib.
Where [8] appears, read: read-out: Percent control / Acalabrutinib.
The mark [9] stands for this setting: read-out: Percent control / Ibrutinib.
Where [10] appears, read: read-out: Percent control / Zanubrutinib.

Chain of EGFR(L747-S752del, P753S) (P00533 with tags, fused parts or gaps DEL747-752/P753S): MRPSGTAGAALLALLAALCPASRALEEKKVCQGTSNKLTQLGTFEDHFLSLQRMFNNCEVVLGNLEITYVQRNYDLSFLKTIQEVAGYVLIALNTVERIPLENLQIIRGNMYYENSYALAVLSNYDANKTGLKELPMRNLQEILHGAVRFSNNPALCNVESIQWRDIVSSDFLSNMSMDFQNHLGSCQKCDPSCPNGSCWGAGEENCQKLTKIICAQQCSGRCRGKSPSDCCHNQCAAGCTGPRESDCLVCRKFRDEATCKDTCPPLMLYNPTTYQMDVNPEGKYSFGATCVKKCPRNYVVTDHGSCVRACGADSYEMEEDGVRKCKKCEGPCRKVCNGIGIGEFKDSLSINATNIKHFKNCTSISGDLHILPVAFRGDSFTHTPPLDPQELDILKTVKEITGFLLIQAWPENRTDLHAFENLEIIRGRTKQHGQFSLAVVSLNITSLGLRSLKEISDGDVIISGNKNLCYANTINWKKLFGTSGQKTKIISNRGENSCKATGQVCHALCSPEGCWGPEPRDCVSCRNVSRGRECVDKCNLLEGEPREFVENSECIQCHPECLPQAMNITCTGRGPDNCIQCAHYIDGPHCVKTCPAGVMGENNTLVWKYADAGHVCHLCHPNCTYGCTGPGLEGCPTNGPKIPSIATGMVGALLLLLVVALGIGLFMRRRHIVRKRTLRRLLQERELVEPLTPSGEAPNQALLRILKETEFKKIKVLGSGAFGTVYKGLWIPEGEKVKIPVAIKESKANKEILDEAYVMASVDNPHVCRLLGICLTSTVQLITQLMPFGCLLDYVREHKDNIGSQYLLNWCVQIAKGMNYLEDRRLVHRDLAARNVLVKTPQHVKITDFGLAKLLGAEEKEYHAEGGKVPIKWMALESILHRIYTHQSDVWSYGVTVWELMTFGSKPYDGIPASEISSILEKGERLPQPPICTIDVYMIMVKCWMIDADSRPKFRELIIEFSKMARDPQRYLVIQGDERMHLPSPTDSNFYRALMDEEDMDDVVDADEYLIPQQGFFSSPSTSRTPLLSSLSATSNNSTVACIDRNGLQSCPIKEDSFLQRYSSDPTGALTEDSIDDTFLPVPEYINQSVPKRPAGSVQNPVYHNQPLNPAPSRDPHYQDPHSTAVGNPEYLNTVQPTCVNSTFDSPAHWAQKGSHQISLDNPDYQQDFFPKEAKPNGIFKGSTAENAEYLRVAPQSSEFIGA
Chain of RET(M918T) (P07949 whole entry M918T): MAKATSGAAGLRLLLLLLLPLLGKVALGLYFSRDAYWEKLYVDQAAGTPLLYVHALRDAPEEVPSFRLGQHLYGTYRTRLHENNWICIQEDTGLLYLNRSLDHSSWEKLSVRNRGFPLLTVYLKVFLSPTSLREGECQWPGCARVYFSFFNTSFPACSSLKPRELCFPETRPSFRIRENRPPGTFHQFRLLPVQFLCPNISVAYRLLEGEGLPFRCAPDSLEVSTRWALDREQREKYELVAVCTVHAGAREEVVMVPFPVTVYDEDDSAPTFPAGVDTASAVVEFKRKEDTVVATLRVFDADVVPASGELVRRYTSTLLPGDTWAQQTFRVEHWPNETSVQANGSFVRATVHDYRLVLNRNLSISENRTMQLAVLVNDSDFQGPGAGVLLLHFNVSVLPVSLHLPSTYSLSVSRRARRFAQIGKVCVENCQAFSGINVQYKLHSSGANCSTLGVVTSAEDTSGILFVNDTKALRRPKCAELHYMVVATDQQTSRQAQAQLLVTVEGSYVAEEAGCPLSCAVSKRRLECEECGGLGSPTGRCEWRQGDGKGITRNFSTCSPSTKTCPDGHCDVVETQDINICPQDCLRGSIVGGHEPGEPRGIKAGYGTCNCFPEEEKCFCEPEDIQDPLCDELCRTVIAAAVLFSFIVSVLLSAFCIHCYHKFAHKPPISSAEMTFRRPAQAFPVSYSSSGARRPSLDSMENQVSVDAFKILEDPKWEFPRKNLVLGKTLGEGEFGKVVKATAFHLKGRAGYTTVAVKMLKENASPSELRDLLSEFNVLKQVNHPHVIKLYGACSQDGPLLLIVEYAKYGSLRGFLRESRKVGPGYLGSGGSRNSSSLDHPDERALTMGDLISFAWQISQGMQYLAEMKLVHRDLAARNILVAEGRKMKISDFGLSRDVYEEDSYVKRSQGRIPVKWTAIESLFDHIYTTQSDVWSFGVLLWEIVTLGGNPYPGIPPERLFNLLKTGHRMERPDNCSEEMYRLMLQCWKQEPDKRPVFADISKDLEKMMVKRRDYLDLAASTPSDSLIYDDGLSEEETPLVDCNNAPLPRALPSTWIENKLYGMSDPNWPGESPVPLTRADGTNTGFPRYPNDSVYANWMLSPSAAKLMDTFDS
T2 sequence (Q16539 whole entry): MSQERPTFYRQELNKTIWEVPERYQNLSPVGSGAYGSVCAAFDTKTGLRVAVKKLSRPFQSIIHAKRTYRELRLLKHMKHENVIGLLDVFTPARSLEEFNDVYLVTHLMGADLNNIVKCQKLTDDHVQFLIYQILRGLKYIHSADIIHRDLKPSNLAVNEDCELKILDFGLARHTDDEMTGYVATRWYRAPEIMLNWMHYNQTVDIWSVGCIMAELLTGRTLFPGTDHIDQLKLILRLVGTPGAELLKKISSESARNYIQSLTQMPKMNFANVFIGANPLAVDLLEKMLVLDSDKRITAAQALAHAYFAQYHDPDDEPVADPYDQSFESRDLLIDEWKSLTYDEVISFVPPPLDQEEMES
Chain of ACVR2A (P27037 whole entry): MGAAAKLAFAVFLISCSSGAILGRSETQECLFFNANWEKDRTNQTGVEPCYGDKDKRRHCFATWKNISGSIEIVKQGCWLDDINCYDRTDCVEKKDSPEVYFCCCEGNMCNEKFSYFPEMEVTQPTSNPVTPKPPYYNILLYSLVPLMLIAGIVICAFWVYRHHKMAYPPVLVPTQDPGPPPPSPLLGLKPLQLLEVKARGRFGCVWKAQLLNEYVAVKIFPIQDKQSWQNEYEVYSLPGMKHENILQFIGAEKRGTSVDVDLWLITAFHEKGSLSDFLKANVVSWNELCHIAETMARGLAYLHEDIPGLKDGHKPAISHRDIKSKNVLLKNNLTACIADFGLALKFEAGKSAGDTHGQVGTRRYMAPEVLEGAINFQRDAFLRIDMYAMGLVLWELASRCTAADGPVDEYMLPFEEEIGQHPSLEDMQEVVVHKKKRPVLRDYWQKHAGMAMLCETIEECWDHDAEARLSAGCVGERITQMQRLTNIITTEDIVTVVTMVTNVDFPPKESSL

Take `CC#CC(=O)N1CC[C@@H](n2c(=O)n(-c3ccc(Oc4ccccc4)cc3)c3c(N)ncnc32)C1` [Tirabrutinib]: the remaining binding at 0.3 µM in test [1] (setting [7]) was determined as 88%; in test [2] (setting [7]), 80%; in test [3] (setting [7]), 91%; in test [4] (setting [7]), 92%.

As to `CC#CC(=O)N1CCC[C@H]1c1nc(-c2ccc(C(=O)Nc3ccccn3)cc2)c2c(N)nccn12` [Acalabrutinib], the remaining binding at 0.3 µM in test [5] (setting [8]) came to 80%; in test [1] (setting [8]), 99%; in test [2] (setting [8]) it was 86%; in test [6] (setting [8]), 94%; in test [4] (setting [8]), 85%.

Turning to `C=CC(=O)N1CCC[C@@H](n2nc(-c3ccc(Oc4ccccc4)cc3)c3c(N)ncnc32)C1` [Ibrutinib], the remaining binding at 0.3 µM in test [5] (setting [9]) was 86%; in test [1] (setting [9]) it was 12%; in test [2] (setting [9]), 86%; in test [6] (setting [9]), 89%; in test [3] (setting [9]), 32%; in test [4] (setting [9]) it was 98%.

Consider `C=CC(=O)N1CCC([C@@H]2CCNc3c(C(N)=O)c(-c4ccc(Oc5ccccc5)cc4)nn32)CC1` [Zanubrutinib], for which the remaining binding at 0.3 µM in test [5] (setting [10]) amounted to 100%; in test [2] (setting [10]), 91%; in test [6] (setting [10]), 91%; in test [3] (setting [10]) it was 92%; in test [4] (setting [10]), 97%.
